Results as given in paper PMC9736874, “Development of Hydroxamate Derivatives Containing a Pyrazoline Moiety as APN Inhibitors to Overcome Angiogenesis” (Molecules, 2022).

Tests used:
[1] = target: T1, porcine kidney aminopeptidase N (APN) (Sus scrofa, UniProt P15145); test: Enzymatic inhibition assay against APN in vitro (L-Leu-p-nitroanilide substrate); type: biochemical; details: soluble APN from porcine kidney microsomal, 37 °C, 30 min; triplicate, mean ± SD
T1 construct: purchased Enzo Life Sciences; host or cells: porcine kidney microsomes (tissue-derived)
T1 sequence (P15145 1-963): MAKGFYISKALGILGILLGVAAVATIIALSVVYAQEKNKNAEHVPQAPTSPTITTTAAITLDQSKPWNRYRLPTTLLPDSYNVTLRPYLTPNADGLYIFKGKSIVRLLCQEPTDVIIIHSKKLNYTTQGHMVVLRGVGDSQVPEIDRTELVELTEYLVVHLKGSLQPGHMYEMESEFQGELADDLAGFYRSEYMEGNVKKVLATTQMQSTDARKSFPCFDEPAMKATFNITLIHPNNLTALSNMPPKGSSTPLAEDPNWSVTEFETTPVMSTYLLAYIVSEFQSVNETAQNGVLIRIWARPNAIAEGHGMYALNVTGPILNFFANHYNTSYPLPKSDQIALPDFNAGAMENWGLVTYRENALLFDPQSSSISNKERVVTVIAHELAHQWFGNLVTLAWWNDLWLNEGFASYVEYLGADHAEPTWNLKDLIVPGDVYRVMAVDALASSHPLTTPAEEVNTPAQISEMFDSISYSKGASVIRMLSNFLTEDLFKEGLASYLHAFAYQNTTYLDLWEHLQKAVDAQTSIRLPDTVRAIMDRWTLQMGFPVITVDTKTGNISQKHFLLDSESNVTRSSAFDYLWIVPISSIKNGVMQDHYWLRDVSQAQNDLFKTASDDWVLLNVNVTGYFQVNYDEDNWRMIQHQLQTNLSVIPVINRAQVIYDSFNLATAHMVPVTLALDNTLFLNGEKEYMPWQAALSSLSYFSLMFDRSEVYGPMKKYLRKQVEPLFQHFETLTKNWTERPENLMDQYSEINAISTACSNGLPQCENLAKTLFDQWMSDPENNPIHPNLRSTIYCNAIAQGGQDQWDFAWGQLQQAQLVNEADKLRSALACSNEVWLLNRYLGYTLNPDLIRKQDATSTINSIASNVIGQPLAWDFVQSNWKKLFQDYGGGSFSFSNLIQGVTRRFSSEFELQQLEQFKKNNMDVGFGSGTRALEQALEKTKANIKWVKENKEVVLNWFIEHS
Experimental: The enzymatic inhibitory activities of target compounds were evaluated using L-Leu-p-nitroanilide (Sigma-Aldrich, St. Louis, MO, USA) as substrate and soluble APN from porcine kidney microsomal (Enzo Life Sciences, Farmingdale, NY, USA) as enzyme. Firstly, the substrate was dissolved in DMSO to a concentration of 16 mmol/L and the enzyme was dissolved in buffer solution of 50 mM PBS (pH = 7.2) for a concentration of 0.15 IU/L. Subsequently, inhibitors (40 μL) and PBS (145 μL) were added into the 96-well plates, followed by the addition of substrate (5 μL) and enzyme (10 μL). After incubation at 37 °C for 30 min, the absorbance values were measured at 405 nm with a plate reader (Varioskan, Thermo Fisher Scientific, Waltham, MA, USA).

SMILES	IC50 [1] [nM]	melting point [°C]
NC(=O)N1N=C(c2ccccc2OCc2ccc(Br)cc2)CC1c1ccccc1OCC(=O)NO (stereo not drawn) [Compound 14hh, 3-(2-((4-Bromobenzyl)oxy)phenyl)-5-(2-(2-(hydroxyamino)-2-oxoethoxy)phenyl)-4,5-dihydro-1H-pyrazole-1-carboxamide]	550 ± 40	96 to 98
NC(=O)N1N=C(c2ccccc2OCc2cccc(Br)c2)CC1c1ccccc1OCC(=O)NO (stereo not drawn) [Compound 14ff, 3-(2-((3-Bromobenzyl)oxy)phenyl)-5-(2-(2-(hydroxyamino)-2-oxoethoxy)phenyl)-4,5-dihydro-1H-pyrazole-1-carboxamide]	58 ± 3	120 to 122
CC(=O)N1N=C(c2ccccc2I)CC1c1c(Br)cccc1OCC(=O)NO (stereo not drawn) [Compound 14w, 2-(2-(1-Acetyl-3-(2-iodophenyl)-4,5-dihydro-1H-pyrazol-5-yl)-3-bromophenoxy)-N-hydroxyacetamide]	24 ± 1	152 to 154
NC(=O)N1N=C(c2ccccc2)CC1c1ccccc1OCC(=O)NO (stereo not drawn) [Compound 13b, reference compound]	160 ± 10	
CC(=O)N1N=C(c2ccccc2F)CC1c1ccccc1OCC(=O)NO (stereo not drawn) [Compound 14g, 2-(2-(1-Acetyl-3-(2-fluorophenyl)-4,5-dihydro-1H-pyrazol-5-yl)phenoxy)-N-hydroxy acetamide]	250 ± 10	176 to 178
CC(=O)N1N=C(c2ccc(Cl)cc2Cl)CC1c1ccccc1OCC(=O)NO (stereo not drawn) [Compound 14l, 2-(2-(1-Acetyl-3-(2,4-dichlorophenyl)-4,5-dihydro-1H-pyrazol-5-yl)phenoxy)-N-hydroxyacetamide]	580 ± 40	128 to 130
CC(=O)N1N=C(c2ccccc2OCc2ccccc2)CC1c1ccccc1OCC(=O)NO (stereo not drawn) [Compound 14aa, 2-(2-(1-Acetyl-3-(2-(benzyloxy)phenyl)-4,5-dihydro-1H-pyrazol-5-yl)phenoxy)-N-hydroxyacetamide]	17 ± 1	162 to 164
CC(=O)N1N=C(c2cccc3ccccc23)CC1c1ccccc1OCC(=O)NO (stereo not drawn) [Compound 14p, 2-(2-(1-Acetyl-3-(naphthalen-1-yl)-4,5-dihydro-1H-pyrazol-5-yl)phenoxy)-N-hydroxy acetamide]	310 ± 20	198 to 200
CC(=O)N1N=C(c2ccc(Br)cc2)CC1c1ccccc1OCC(=O)NO (stereo not drawn) [Compound 14c, 2-(2-(1-Acetyl-3-(4-bromophenyl)-4,5-dihydro-1H-pyrazol-5-yl)phenoxy)-N-hydroxy acetamide]	4400 ± 300	202 to 204
NC(=O)N1N=C(c2ccccc2I)CC1c1cc(Br)ccc1OCC(=O)NO (stereo not drawn) [Compound 14v, 5-(5-Bromo-2-(2-(hydroxyamino)-2-oxoethoxy)phenyl)-3-(2-iodophenyl)-4,5-dihydro-1H-pyrazole-1-carboxamide]	540 ± 40	202 to 204
COc1cccc(C2=NN(C(C)=O)C(c3ccccc3OCC(=O)NO)C2)c1 (stereo not drawn) [Compound 14e, 2-(2-(1-Acetyl-3-(3-methoxyphenyl)-4,5-dihydro-1H-pyrazol-5-yl)phenoxy)-N-hydroxy acetamide]	370	170 to 172
CC(=O)N1N=C(c2ccccc2Cl)CC1c1ccccc1OCC(=O)NO (stereo not drawn) [Compound 14h, 2-(2-(1-Acetyl-3-(2-chlorophenyl)-4,5-dihydro-1H-pyrazol-5-yl)phenoxy)-N-hydroxy acetamide]	29 ± 2	166 to 168
CC(=O)N1N=C(c2ccccc2OCc2ccccc2Br)CC1c1ccccc1OCC(=O)NO (stereo not drawn) [Compound 14cc, 2-(2-(1-Acetyl-3-(2-((2-bromobenzyl)oxy)phenyl)-4,5-dihydro-1H-pyrazol-5-yl)phenoxy)-N-hydroxyacetamide]	68 ± 4	82 to 84
CC(=O)N1N=C(c2ccccc2OCc2cccc(Br)c2)CC1c1ccccc1OCC(=O)NO (stereo not drawn) [Compound 14ee, 2-(2-(1-Acetyl-3-(2-((3-bromobenzyl)oxy)phenyl)-4,5-dihydro-1H-pyrazol-5-yl)phenoxy)-N-hydroxyacetamide]	31 ± 2	164 to 166
CC(=O)N1N=C(c2ccccc2Br)CC1c1ccccc1OCC(=O)NO (stereo not drawn) [Compound 14a, 2-(2-(1-Acetyl-3-(2-bromophenyl)-4,5-dihydro-1H-pyrazol-5-yl)phenoxy)-N-hydroxy acetamide]	46 ± 3	162 to 164
COc1cccc(OC)c1C1=NN(C(N)=O)C(c2ccccc2OCC(=O)NO)C1 (stereo not drawn) [Compound 14n, 3-(2,6-Dimethoxyphenyl)-5-(2-(2-(hydroxyamino)-2-oxoethoxy)phenyl)-4,5-dihydro-1H-pyrazole-1-carboxamide]	440 ± 30	212 to 214
CC(=O)N1N=C(c2cccc(Br)c2)CC1c1ccccc1OCC(=O)NO (stereo not drawn) [Compound 14b, 2-(2-(1-Acetyl-3-(3-bromophenyl)-4,5-dihydro-1H-pyrazol-5-yl)phenoxy)-N-hydroxy acetamide]	320 ± 30	152 to 154
NC(=O)N1N=C(c2ccccc2OCc2ccccc2Br)CC1c1ccccc1OCC(=O)NO (stereo not drawn) [Compound 14dd, 3-(2-((2-Bromobenzyl)oxy)phenyl)-5-(2-(2-(hydroxyamino)-2-oxoethoxy)phenyl)-4,5-dihydro-1H-pyrazole-1-carboxamide]	230 ± 10	92 to 94
COc1cccc(OC)c1C1=NN(C(C)=O)C(c2ccccc2OCC(=O)NO)C1 (stereo not drawn) [Compound 14m, 2-(2-(1-Acetyl-3-(2,6-dimethoxyphenyl)-4,5-dihydro-1H-pyrazol-5-yl)phenoxy)-N-hydroxyacetamide]	200 ± 10	178 to 180
NC(=O)N1N=C(c2ccccc2OCc2ccccc2)CC1c1ccccc1OCC(=O)NO (stereo not drawn) [Compound 14bb, 3-(2-(Benzyloxy)phenyl)-5-(2-(2-(hydroxyamino)-2-oxoethoxy)phenyl)-4,5-dihydro-1H-pyrazole-1-carboxamide]	15 ± 1	176 to 178
CC(=O)N1N=C(c2ccccc2OCc2ccc(Br)cc2)CC1c1ccccc1OCC(=O)NO (stereo not drawn) [Compound 14gg, 2-(2-(1-Acetyl-3-(2-((4-bromobenzyl)oxy)phenyl)-4,5-dihydro-1H-pyrazol-5-yl)phenoxy)-N-hydroxyacetamide]	560 ± 40	96 to 98
NC(=O)N1N=C(c2ccccc2I)CC1c1c(Cl)cccc1OCC(=O)NO (stereo not drawn) [Compound 14z, 5-(2-Chloro-6-(2-(hydroxyamino)-2-oxoethoxy)phenyl)-3-(2-iodophenyl)-4,5-dihydro-1H-pyrazole-1-carboxamide]	70 ± 3	190 to 192
NC(=O)N1N=C(c2ccccc2I)CC1c1ccc(Br)cc1OCC(=O)NO (stereo not drawn) [Compound 14t, 5-(4-Bromo-2-(2-(hydroxyamino)-2-oxoethoxy)phenyl)-3-(2-iodophenyl)-4,5-dihydro-1H-pyrazole-1-carboxamide]	1600 ± 100	196 to 198
NC(=O)N1N=C(c2ccccc2I)CC1c1c(Br)cccc1OCC(=O)NO (stereo not drawn) [Compound 14x, 5-(2-Bromo-6-(2-(hydroxyamino)-2-oxoethoxy)phenyl)-3-(2-iodophenyl)-4,5-dihydro-1H-pyrazole-1-carboxamide]	90 ± 5	132 to 134
NC(=O)N1N=C(c2ccccc2I)CC1c1cccc(Br)c1OCC(=O)NO (stereo not drawn) [Compound 14r, 5-(3-Bromo-2-(2-(hydroxyamino)-2-oxoethoxy)phenyl)-3-(2-iodophenyl)-4,5-dihydro-1H-pyrazole-1-carboxamide]	3400 ± 300	140 to 142
NC(=O)N1N=C(c2c(Cl)cccc2Cl)CC1c1ccccc1OCC(=O)NO (stereo not drawn) [Compound 13c, reference compound]	59 ± 2	
CC(=O)N1N=C(c2ccccc2)CC1c1ccccc1OCC(=O)NO (stereo not drawn) [Compound 13a, reference compound]	320 ± 10	
